PMC6337631, “Effective Tetradentate Compound Complexes against Leishmania spp. that Act on Critical Enzymatic Pathways of These Parasites” (Molecules, 2018)

How the values were obtained:
[1] = system: Leishmania infantum promastigote forms; assay: Promastigote test (extracellular forms), L. infantum; assay type: cell-based; conditions: Leishmania infantum; 72 h; 100 µM to 1 µM; mean ± SD of four determinations
Procedure: Promastigote forms of three different Leishmania spp., L. donovani (MHOM/PE/84/LC26), L. infantum (MCAN/ES/2001/UCM-10) and L. braziliensis (MHOM/BR/1975/M2904), were cultured in vitro in Medium Trypanosomes Liquid (MTL) supplemented with 10% inactivated foetal calf serum (FCS) in an air atmosphere at 28 °C, in Roux flasks (Corning, Manassas, VA, USA) with a surface area of 75 cm^2, according to [33].
The compounds and the reference drug Glu were dissolved in DMSO (Panreac, Barcelona, Spain) and tested from 100 µM to 1 µM with 0.1% (v/v) DMSO final concentration in plates. Therefore, controls were prepared including 0.1% (v/v) of this component, as previously described.
Promastigote forms were collected in the exponential growth phase and seeded at 1 × 10^5 parasites/mL in 24-well microplates (Nunc, Naperville, IL, USA), after adding each compound at concentrations from 100 µM to 1 µM and cultured in 500 μL/well volumes at 28 °C. After 72 h incubation, the leishmanicidal activity was assessed using a Neubauer haemocytometric chamber in comparison with the control cultures. […] Each drug concentration was tested in triplicate in four separate determinations.

[2] = system: L. donovani promastigotes; assay: Metabolite excretion by 1H-NMR, L. donovani; assay type: cell-based, Leishmania donovani; conditions: IC25 concentration, 72 h, vs untreated
Procedure: Trypanosomatids catabolizes glucose at a high rate, excreting into the medium partly oxidized end products such as acetate, succinate, L-alanine or L-lactate.
Cultures of L. donovani, L. infantum and L. braziliensis promastigotes were seeded in culture flaks at 5 × 10^5 cells/mL, and after the addition of the compounds at IC25 concentrations at 28 °C. Control cultures were also included. After 72 h of incubation, parasites were centrifuged at 400 × g for 10 min, and supernatants were collected in order to determine the excreted metabolites by ^1H-NMR. Chemical shifts were expressed in parts per million (ppm) using sodium 2,2-dimethyl-2-silapentane-5-sulphonate as the reference signal. The One-dimensional ^1H-NMR spectra were acquired with a VARIAN DIRECT DRIVE 400 MHz Bruker spectrometer (Rheinstetten, Germany) with an AutoX probe using D2O as solvent. The chemical shifts used to identify the respective metabolites were consistent with those described previously by some of the authors. The spectral region of 1.0–5.5 ppm was bucketed into a frequency window of 0.1 ppm. The peak (2.6 ppm) corresponding to DMSO was removed before binning, and the regions corresponding to water (4.5–5.5 ppm) and glucose (3.4–3.8 ppm) were excluded during binning to avoid artefacts due to pre-saturation. The aromatic region was excluded because the signal to noise ratio in this region was poorer in comparison to the aliphatic region. The resulting integrals were normalised to the working region (1.0–3.4) ppm of the spectrum to correct for inter-sample differences in dilution. The binning and normalisations were achieved using Mestrenova 9.0 software (Santiago de Compostela, Spain). The matrix obtained in Mestrenova was imported into Microsoft Excel (Redmond, WA, USA) for further data analyses.

human CuZn-SOD = target: T1, human CuZn-SOD (Homo sapiens, UniProt P00441); assay: SOD inhibition assay, human CuZn-SOD; assay type: biochemical; conditions: assayed 100 µM to 0.1 µM; non-linear regression
T1 construct: purchased Sigma Chemical Co. (St. Louis, MO, USA)
Procedure: The previous extraordinary results prompted us to evaluate the inhibitory effect of 3, 5–8 and 10 on the SOD activity. […]
Parasite cells were collected in the exponential growth phase by centrifugation (400g for 10 min). The pellet obtained after centrifugation was lysated by sonication, processed according to [38] and obtained the homogenate fraction which contained the parasite Fe-SOD. The protein content was quantified using the Sigma Bradford test, which uses BSA as a standard (no trace ability was certified for the BSA standard). Superoxide dismutase activities were determined using a method previously described, which measures the reduction in nitrobluetetrazolium (NBT) by superoxide ions. Human CuZn-SOD. Substrates used in these assays were obtained from Sigma Chemical Co. (St. Louis, MO, USA). Resulting data were analysed using the Newman−Keuls test.

T1 sequence (P00441 whole entry): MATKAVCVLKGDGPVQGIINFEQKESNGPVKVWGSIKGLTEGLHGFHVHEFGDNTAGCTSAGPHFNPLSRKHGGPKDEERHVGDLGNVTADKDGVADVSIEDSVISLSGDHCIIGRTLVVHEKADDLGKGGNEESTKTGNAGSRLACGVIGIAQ

For `CN(C)c1ccnc(CN2CCC[C@H]2[C@@H]2CCCN2Cc2cc(N(C)C)ccn2)c1` [Compound 7], the IC50 [1] was 12.3 ± 2.2 µM, the “Excretion variation ACETATE, L. donovani” value [2] was over 50% and the “Excretion variation L-ALANINE, L. donovani” value [2] was 64%. For the same compound, the “Excretion variation SUCCINATE, L. donovani” value [2] was over 50% and the IC50 (human CuZn-SOD) was over 500 µM.
